The text below walks through data of patent publication US9724388B2, “FGF-18 compound dosing regimen” (MERCK PATENT GMBH, priority 2014, dated 2017).

Like-named read-outs stand apart in the source and are kept apart here.

Assay [1] deals with medial meniscal tear in the right knee joint. It is filed as in vivo, rat. To be noted: for swelling scores vs vehicle controls: days 24-29, 31, and 36-43. The method, then: Male Lewis rats underwent surgery to induce a medial meniscal tear in the right knee joint. Animals were dosed i.a. with FGF-18 (10 μg/joint) on days 21, 28, and 35 and dosed orally with diclofenac (either 1 mg/kg or 3 mg/kg) or vehicle on days 21-23, 28-30, and 35-37, then terminated on day 42 or day 63. Serum was collected and evaluated for alpha 2 macroglobulin (α2MG) levels on days −3, 21, 42, and 63. α2MG is an inflammation serum biomarker. The link between α2MG and inflammation has already been shown (Kuribayashi et al., 2013).

Another assay has as its system OA symptoms. The settings on record: Chevalier et al., 2009, cited from earlier work.
For the next assay, the system named is RA patients. The settings on record: cited from earlier work.
The subject of assay [2] is Primary articular porcine chondrocytes. Nature of the assay: Porcine chondrocyte proliferation with or without IL1α challenge. The settings on record: for restoration of rhFGF-18 proliferative activity in IL1α-challenged chondrocytes: anakinra 100 ng/mL with rhFGF-18 100 ng/mL, IL1α 10 ng/mL, direct and delayed treatments. Format: cell-based, pig. The method, then:
Porcine chondrocytes were isolated from the cartilage of a femoral head of a pig hip (pigs were approximately one year old). After dissection of the joints, the cartilage was harvested and digested 45 minutes with collagenase 0.25% (1/10 dilution of collagenase NBG4 2.5% in HAM's F12) at room temperature. The loosened cells were discarded and the cartilage further digested overnight with collagenase 0.1% (1/25 dilution of collagenase NBG4 2.5% in HAM's F12) at 37° C. to extract the chondrocytes. For this study, the chondrocytes were cultured in monolayer.
Primary articular porcine chondrocytes were stimulated or not with 10 ng/mL IL1α and were either treated immediately or 6 hours later with anakinra 100 ng/mL and/or trFGF-18 100 ng/mL. Each condition was performed in 4 or 6-plicates. As a control, cells were also cultured with anakinra alone, trFGF-18 alone or in the absence of any treatment (medium).
Pre-culture: After cell isolation porcine chondrocytes were inoculated at 20,000 cells/cm^2 and cultivated for one week in complete HAM's F12. Cells were then harvested with accutase, counted and used as described below.
For cells treated directly with anakinra: Chondrocytes were inoculated in a 24-well plate at 15,000 cells/well in 0.5 mL of complete HAM's F12. Then 0.25 mL of trFGF-18 400 ng/mL and/or 0.25 mL of anakinra 400 ng/mL were added to the cells. In the challenged samples, 10 μL of IL1α at 1,000 ng/mL were also added to the cells. trFGF-18, anakinra and IL1α were all diluted in complete HAM's F12. The final volume in the culture well was adjusted at 1 mL with complete HAM's F12. Final concentrations were 10 ng/mL IL1α, 100 ng/mL trFGF-18 and 100 ng/mL anakinra and the total culture time was eight days. A complete medium change was performed after four days. N=4.
For cells treated with anakinra and trFGF-18 6 hours after the IL1α challenge: Chondrocytes were inoculated in a 24-well plate at 15,000 cells/well in 1 mL of complete HAM's F12 containing or not containing IL1α 10 ng/mL. After 6 hours the medium was removed and replaced with 0.25 mL trFGF-18 400 ng/mL and/or 0.25 mL of anakinra 400 ng/mL. In the challenged samples, 0.25 mL of IL1α at 40 ng/mL was also added to the cells. trFGF-18, anakinra and IL1α were all diluted in complete HAM's F12. The final volume in the culture well was adjusted at 1 mL with complete HAM's F12. Final concentrations were 10 ng/mL IL1α, 100 ng/mL trFGF-18 and 100 ng/mL anakinra and the total culture time was eight days. A complete medium change was performed after four days. N=6.
After eight days of culture, cells were harvested with accutase and resulting cell suspensions were analyzed for cell concentration and cell viability with a ViCell™ cell analyzer (from Beckman Coulter). Statistical analysis consisted in a 1-way ANOVA followed by a Dunnett post-hoc analysis.

In the case of `O=C(O)Cc1ccccc1Nc1c(Cl)cccc1Cl` [diclofenac, 2-(2,6-dichloranilino) phenylacetic acid], the knee caliper measurements entry is on record as “not significantly affected” in assay [1] (diclofenac 1 mg/kg orally with FGF-18, any other time point); “significantly reduced” in assay [1] (diclofenac 1 mg/kg orally with FGF-18, day 42); “not significantly affected” in assay [1] (diclofenac 3 mg/kg orally with FGF-18, any other time point); “significantly reduced” in assay [1] (diclofenac 3 mg/kg orally with FGF-18, day 42). Further, the “swelling scores vs vehicle controls” value in assay [1] (diclofenac 1 mg/kg orally with FGF-18) and in assay [1] (diclofenac 3 mg/kg orally with FGF-18) was “significantly reduced” throughout. Further, in assay [1] (diclofenac 1 or 3 mg/kg with FGF-18), the “knee swelling (clinical observations and caliper measurements)” value is listed as “significantly reduced”.

As to “anakinra: recombinant, nonglycosylated form of human interleukin-1 receptor antagonist (IL-1Ra), SEQ ID NO: 3”, in the assay with OA symptoms, the “improvements in OA symptoms compared with placebo” value was “not significantly associated”. In the assay with OA symptoms (anakinra 150 mg), the “pain versus placebo in OA” value is given as “a tendency toward pain reduction”. In addition, the “joint damage in RA patients” value in the assay with RA patients (Bresnihan, 2002, St. Clair) is “reduction in frequency and severity of joint damage”. The “pain in RA patients” value in the assay with RA patients (Mertens et al., 2009) is “pain reduction”. For the same molecule, the figures for the “restoration of rhFGF-18 proliferative activity in IL1α-challenged chondrocytes” value in assay [2] and in assay [2] (listed as Anakinra) were “fully block” and “fully restore”, respectively. For the same molecule, the “effect on chondrocyte proliferation” value in assay [2] (anakinra alone, 100 ng/mL) is “no effect”.
